# Values of other authors, collected in patent publication US9687482B2, “Stable pharmaceutical composition comprising solifenacin, and method for preparing the same” (CJ HEALTHCARE CORPORATION, priority 2014, dated 2017).
# Target: muscarinic M3 receptors (Homo sapiens, UniProt P20309)
# Settings: reported
# Sequence of muscarinic M3 receptors (P20309 whole entry): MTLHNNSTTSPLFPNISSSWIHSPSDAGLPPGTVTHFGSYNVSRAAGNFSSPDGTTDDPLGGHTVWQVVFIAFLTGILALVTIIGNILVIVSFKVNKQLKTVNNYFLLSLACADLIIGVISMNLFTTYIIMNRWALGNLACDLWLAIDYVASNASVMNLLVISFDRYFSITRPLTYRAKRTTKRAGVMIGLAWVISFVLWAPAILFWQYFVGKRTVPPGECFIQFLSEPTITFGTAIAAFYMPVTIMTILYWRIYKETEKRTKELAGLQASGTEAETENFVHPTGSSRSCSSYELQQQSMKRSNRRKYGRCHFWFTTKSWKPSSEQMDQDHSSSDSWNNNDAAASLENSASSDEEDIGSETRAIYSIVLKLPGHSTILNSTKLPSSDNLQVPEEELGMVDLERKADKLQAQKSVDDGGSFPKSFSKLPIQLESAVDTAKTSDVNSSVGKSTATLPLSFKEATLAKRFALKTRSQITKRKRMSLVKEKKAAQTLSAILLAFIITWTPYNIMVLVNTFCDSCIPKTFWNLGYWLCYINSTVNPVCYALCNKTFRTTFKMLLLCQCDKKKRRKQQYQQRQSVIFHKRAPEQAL
smiles,measurement,value
"O=C(O[C@H]1CN2CCC1CC2)N1CCc2ccccc2[C@@H]1c1ccccc1 [Solifenacin, (1R,3′R)-3′-quinuclidinyl-1-phenyl-1,2,3,4-tetrahydro-2-isoquinoline carboxylate]",antagonistic action against muscarinic M3 receptors,excellent selective antagonistic action
